Experimental data as given in patent US20090143279A1 (priority 2007, published 2009).
Read-outs that look alike come from different tables or passages of the source. Where a SMILES comes first, the peptide text is derived from it. Bridges are numbered along the chain shown (N, C = ends). [ ]: non-standard residue; d: D form. The star is where a group is joined. Ileψ(thiazoline)Cys = CC[C@H](C)[C@H](N)C1=N[C@H](C(=O)*)CS1; dOrn = NCCC[C@@H](N)C(=O)O

Experiments:
reactive oxygen species = type: cell-based, mouse; conditions: for ROS (composite Z-score): normalized score vs mock-treated (DMSO) wells
cytochrome c = type: cell-based, mouse; conditions: for cyt c (composite Z-score): normalized score vs mock-treated (DMSO) wells
OXPHOS gene expression = type: cell-based, mouse; conditions: for GE-HTS (composite Z-score): normalized score vs mock-treated (DMSO) wells
nuOXPHOS transcripts = type: cell-based, mouse; conditions: for nucOX (composite Z-score): normalized score vs mock-treated (DMSO) wells
[1] = system: mitochondrial membrane potential; type: cell-based, mouse; conditions: for ΔΨm (composite Z-score): normalized score vs mock-treated (DMSO) wells
[2] = system: cellular dehydrogenase activity; conditions: for MTT (composite Z-score): normalized score vs mock-treated (DMSO) wells
C2C12 myotubes = conditions: for Viability (composite Z-score): normalized score vs mock-treated (DMSO) wells
mtOXPHOS transcripts = type: cell-based, mouse; conditions: for mitoOX (composite Z-score): normalized score vs mock-treated (DMSO) wells
[3] = composite Z-score vs DMSO, Conc 20 μM
[4] = normalized composite Z-score vs mock-treated (DMSO) wells, Conc 20 μM
[5] = 20 μM, composite Z-score vs DMSO
[6] = composite Z-score vs mock-treated (DMSO) wells, concentration of each compound in μM

For CC1=CC(=O)C2=C(C)C[C@H](O)[C@@H]3[C@H](OC(=O)[C@H]3C)[C@H]12 [austricine], the “ROS (composite Z-score)” value (reactive oxygen species; Conc 20 μM) was 0.665, the “cyt c (composite Z-score)” value (cytochrome c; Conc 20 μM) was 0.842 and the “GE-HTS (composite Z-score)” value (OXPHOS gene expression; Conc 20 μM) was 0.165. The “nucOX (composite Z-score)” value (nuOXPHOS transcripts; Conc 20 μM) was 0.081, the “ΔΨm (composite Z-score)” value ([1]; Conc 20 μM) was −0.711 and the “MTT (composite Z-score)” value ([2]; Conc 20 μM) was −1.268. For the same compound, the “Viability (composite Z-score)” value (C2C12 myotubes; Conc 20 μM) was −0.394 and the “mitoOX (composite Z-score)” value (mtOXPHOS transcripts; Conc 20 μM) was 0.349.
Compound C#CCCCCCCCCCCCC(O)CC(O)CO (stereo not drawn) [avocadyne] has an ROS (reactive oxygen species; [3]) of 0.611, an ROS (reactive oxygen species; [4]) of 0.322 and a cyt c (cytochrome c; [3]) of −0.049. The cyt c (cytochrome c; [4]) was 0.738, the GE-HTS (OXPHOS gene expression; [3]) was −1.062 and the GE-HTS (OXPHOS gene expression; [4]) was 0.405. It also gave a nucOX (nuOXPHOS transcripts; [3]) of −1.019, a nucOX (nuOXPHOS transcripts; [4]) of 0.457 and a ΔΨm [1, 3] of −0.029. The ΔΨm [1, 4] was −0.266, the MTT [2, 3] was −0.646 and the MTT [2, 4] was −0.369. It also gave a Viability (C2C12 myotubes; [3]) of −0.546, a Viability (C2C12 myotubes; [4]) of 0.816 and a mitoOX (mtOXPHOS transcripts; [3]) of −0.897. It also gave a mitoOX (mtOXPHOS transcripts; [4]) of 0.242.
C/C=C(\C)C(=O)O[C@H]1C[C@@H](OC(C)=O)[C@@]2(C(=O)OC)CO[C@H]3[C@@H](O)[C@@](C)([C@]45O[C@@]4(C)[C@H]4C[C@@H]5O[C@@H]5OC=C[C@@]54O)[C@H]4[C@]1(CO[C@]4(O)C(=O)OC)[C@@H]32 [azadirachtin] showed an ROS (reactive oxygen species; [3]) of 0.494, a cyt c (cytochrome c; [3]) of −0.421 and a GE-HTS (OXPHOS gene expression; [3]) of 0.119. It also gave a nucOX (nuOXPHOS transcripts; [3]) of 0.152, a ΔΨm [1, 3] of −0.670 and an MTT [2, 3] of −1.018. The Viability (C2C12 myotubes; [3]) was −0.479 and the mitoOX (mtOXPHOS transcripts; [3]) was 0.042.
CC[C@H](C)[C@H](N)C1=N[C@H](C(=O)N[C@@H](CC(C)C)C(=O)N[C@H](CCC(=O)O)C(=O)N[C@H](C(=O)N[C@H]2CCCCNC(=O)[C@H](CC(N)=O)NC(=O)[C@@H](CC(=O)O)NC(=O)[C@H](Cc3cnc[nH]3)NC(=O)[C@@H](Cc3ccccc3)NC(=O)[C@H]([C@@H](C)CC)NC(=O)[C@@H](CCCN)NC2=O)[C@@H](C)CC)CS1 [bacitracin] ({Ileψ(thiazoline)Cys}-L[dE]IK[dOrn]I[dF]H[dD]N; lactam 4-C) showed an ROS (reactive oxygen species; [5]) of 1.177, an ROS (reactive oxygen species; [6]) of 0.105 and a cyt c (cytochrome c; [5]) of 0.305. For the same compound, the cyt c (cytochrome c; [6]) was −0.806, the GE-HTS (OXPHOS gene expression; [5]) was 1.271 and the GE-HTS (OXPHOS gene expression; [6]) was −0.592. It also gave a nucOX (nuOXPHOS transcripts; [5]) of 1.374, a nucOX (nuOXPHOS transcripts; [6]) of −0.736 and a ΔΨm [1, 5] of −0.113. It also gave a ΔΨm [1, 6] of −0.214, an MTT [2, 5] of −0.826 and an MTT [2, 6] of −0.310. For the same compound, the Viability (C2C12 myotubes; [5]) was −0.312, the Viability (C2C12 myotubes; [6]) was −0.938 and the mitoOX (mtOXPHOS transcripts; [5]) was 0.798. The mitoOX (mtOXPHOS transcripts; [6]) was −0.189.
COc1cc2c3cc1Oc1cc(ccc1O)CC1c4c(cc(OC)c(O)c4Oc4ccc(cc4)CC3N(C)CC2)CCN1C (stereo not drawn) [bebeerine] was tested, and the “ROS (composite Z-score)” value (reactive oxygen species; Conc 20 μM) was 0.759, the “cyt c (composite Z-score)” value (cytochrome c; Conc 20 μM) was 0.389 and the “GE-HTS (composite Z-score)” value (OXPHOS gene expression; Conc 20 μM) was −0.005. The “nucOX (composite Z-score)” value (nuOXPHOS transcripts; Conc 20 μM) was −0.028, the “ΔΨm (composite Z-score)” value ([1]; Conc 20 μM) was −0.800 and the “MTT (composite Z-score)” value ([2]; Conc 20 μM) was −1.681. The “Viability (composite Z-score)” value (C2C12 myotubes; Conc 20 μM) was −0.728 and the “mitoOX (composite Z-score)” value (mtOXPHOS transcripts; Conc 20 μM) was 0.119.
For COc1cc2c3cc1Oc1c(OC)c(OC)cc4c1[C@@H](Cc1ccc(O)c(c1)Oc1ccc(cc1)C[C@@H]3N(C)CC2)N(C)CC4 [berbamine], the ROS (reactive oxygen species; [3]) was 0.153, the cyt c (cytochrome c; [3]) was 0.445 and the GE-HTS (OXPHOS gene expression; [3]) was −0.345. For the same compound, the nucOX (nuOXPHOS transcripts; [3]) was −0.166, the ΔΨm [1, 3] was −0.289 and the MTT [2, 3] was −1.021. For the same compound, the Viability (C2C12 myotubes; [3]) was −1.126 and the mitoOX (mtOXPHOS transcripts; [3]) was −0.636.
CC12CCCC(O)(C1)C1CC(C)(C)C1CC2 (stereo not drawn) [beta-caryophyllene alcohol] gave an ROS (reactive oxygen species; [4]) of 1.180, a cyt c (cytochrome c; [4]) of −1.030 and a GE-HTS (OXPHOS gene expression; [4]) of 0.155. The nucOX (nuOXPHOS transcripts; [4]) was 0.105, the ΔΨm [1, 4] was −0.433 and the MTT [2, 4] was −1.859. It also gave a Viability (C2C12 myotubes; [4]) of −0.960 and a mitoOX (mtOXPHOS transcripts; [4]) of 0.264.
